Experimental data published in US20200268793A1, “METHODS AND COMPOSITIONS FOR ALLEVIATING CYTOKINE RELEASE SYNDROME” (MEMORIAL SLOAN-KETTERING CANCER CENTER, priority 2017, published 2020).
Entries after “also recorded” stand apart in the source; their conditions may differ. Read-outs that look alike come from different tables or passages of the source.

Assays:
[1] = tested on: SCID-beige mice with established intraperitoneal Raji tumors; assay: CRS mouse model: survival, weight change, toxicity and histopathology after CAR T cell transfer; format: in vivo; conditions: tumor bearing mice after 1928z CAR T cell transfer; for Toxicity as witnessed by weight loss (percent weight change) under treatment: 5 mg/kg intraperitoneally once per day; for CRS-associated mortality (percent survival) under treatment: agent given intraperitoneally once per day for 5 days
Protocol: Mice were treated under a protocol approved by the MSKCC Institutional Animal Care and Use Committee. CRS Model: 6-8 week old female C.B.Igh-1b/GbmsTac-Prkdc^scidLyst^bgN7 (SCID-beige) mice (Taconic) were intraperitoneally injected with 3 million Raji-GFP-Fluc cells and tumors were left to grow for 20 days. Tumor burden was evaluated by in vivo bioluminescent imaging two days prior to CAR T cell transfer. Outliers, mice with inconsistently higher or lower tumor burdens were excluded from the experiment. Mice were injected intraperitoneally with 30 million CAR^+ T cells in PBS supplemented with 2% Human Serum. Control mice received PBS supplemented with 2% Human Serum. Stress test model: 6-8 week-old male NOD.Cg-Prkdc^scidIl2rg^tmWjl/SzJ (NSG) mice (Jackson Laboratory) were inoculated with 0.5×10^6 NALM-6-GFP-Fluc cells by tail vein injection followed by with 0.2×10^6 or with 0.5×10^6 CAR T cells four days later. Bioluminescence imaging utilized the Xenogen IVIS Imaging System (Xenogen) with Living Image software (Xenogen) for acquisition of imaging datasets. Tumor Burden was assessed as previously described^34.
(§1) Anakinra was administered intraperitoneally at 30 mg/kg once per day for 5 days, starting 5 hours prior to CAR T cell transfer. Anti-murine IL-6 (clone MP5-20F3, BioXcell) and anti-murine IL-6R (clone 15A7, BioXcell) were administered intraperitoneally once per day at 25 mg/kg for the first dose and 12.5 mg/kg for subsequent doses for 5 days starting 5 hours prior to CAR T cell transfer. L-NIL (Enzo Life Sciences) or 1400W (Cayman Chemical) were administered intraperitoneally at 5 mg/kg once per day for 5 days starting 5 hours prior to CAR T cell transfer.
Mice were transferred to the pathology core facility of Memorial Sloan Kettering where they were sacrificed by cardiac puncture. Tissues obtained were fixed in 10% buffered formalin and were further processed for H&E staining and immunohistochemistry.
To model CAR T cell-induced CRS, conditions were established whereby a high number of CD19 CAR T cells engaged a high tumor burden and yielded overt toxicity within 2-3 days^2-5 (FIG. 1A). […] The overall levels of these cytokines, including mIL6, mCCL2, mG-CSF, hIL-3, hIFN-γ, hGM-CSF, hIL-2 correlated strongly with CRS severity and survival (FIGS. 1E-1L and 1S). The xenogeneic nature of this model was taken advantage of to discern the origin of these cytokines and chemokines. Thus, IL-6 was produced by endogenous murine cells while IFN-γ and GM-CSF were products of the CART cells. mIL6 and hIL6.^12, were not elevated in the absence of CART cells (FIGS. 1M-1O, 1T and 5D), establishing that this cardinal feature of CRS was the result a multicellular interaction and not the outcome of a T cell-tumor cell interaction.

[2] = tested on: iNOS; assay: iNOS expression in peritoneal macrophages by intracellular flow cytometry in CRS mice; format: in vivo, mouse; conditions: 18 hours post CAR T cell transfer
Protocol: as §1
Antibodies were titrated for optimal staining. The following fluorophore conjugated antibodies were used (“h” prefix denotes anti-human, “m” prefix denotes anti-mouse): hCD4 BUV395 (clone RPA-T4, BD), hCD8 PE-Cy7 (clone SK1, eBioscience), hCD3 PerCP-efluor710 (clone OKT3, eBioscience), hCD19 BUV737 (clone SJ25C1, BD), hLNGFR BB515 (clone C40-1457, BD), mF4/80 BV421 and BV711 (clone T45-2342, BD), mLy6C Alexa Fluor 647 and BV786 (clone ER-MP20, AbdSerotec and clone HK1.4, BioLegend respectively), mMHCII BB515 (clone 2G9, BD), mCD11c BV650 (clone N418, BioLegend), mLy6G APC-Fire750 (clone 1A8, BioLegend), mSIGLEC-F PE-CF594 (clone E50-2440, BD), mCD40 BV786 (clone 3/23, BD), mCD40L PE (clone MR1, BD), mCD11b BUV395 (clone M1/70, BD), mNOS2 PE-Cy7 (clone CXNFT, eBioscience). […]

[3] = tested on: cognate murine receptor; conditions: cytokines of human origin, cited from earlier work
[4] = tested on: cognate human receptor; conditions: cytokines of murine origin; cited from earlier work

## CC(=N)NCc1cccc(CN)c1 [1400W]
[1]
  Toxicity as witnessed by weight loss (percent weight change) under treatment: reversed toxicity
  CRS-associated mortality (percent survival) under treatment: significantly prevented mortality

## CC(=N)NCCCC[C@H](N)C(=O)O [L-NIL, L-N6-(1-iminoethyl)lysine]
[1]
  Toxicity as witnessed by weight loss (percent weight change) under treatment: robust reversal of toxicity

## Anakinra: IL-1Ra polypeptide used for IL-1 blockade
[1]
  CRS-associated mortality (percent survival) under treatment: completely abrogated CRS-related mortality
[2]
  iNOS+ macrophage fraction: similarly reduced

## GM-CSF: cytokine of human origin
[3]
  Human on mouse (active on the cognate murine receptor): lack of activity; also recorded: No^39

## IFNg: cytokine of human origin
[3]
  Human on mouse (active on the cognate murine receptor): No^38
[3]; listed as human IFN-γ
  Human on mouse (active on the cognate murine receptor): lack of activity

## IL-8: cytokine of human origin
[3]
  Human on mouse (active on the cognate murine receptor): Yes^40

## IL-10: cytokine of human origin
[3]
  Human on mouse (active on the cognate murine receptor): Yes^40

## IL-13: cytokine of human origin
[3]
  Human on mouse (active on the cognate murine receptor): Yes^40

## IL-17: cytokine of human origin
[3]
  Human on mouse (active on the cognate murine receptor): Yes^40

## TNFa
[3]
  Human on mouse (active on the cognate murine receptor): Partial^40
[3]; listed as Human TNF-α
  Human on mouse (active on the cognate murine receptor): can signal through the murine p55 TNF receptor but not the p75 TNF receptor

## human CD40L: CD40 ligand, mainly expressed by T cells
[3]
  Human on mouse (active on the cognate murine receptor): does not functionally interact

B1: IL-5: cytokine of murine origin (protein, UniProt P04401 21-133, looked up)
Interleukin-5: MEIPMSTVVKETLTQLSAHRALLTSNETMRLPVPTHKNHQLCIGEIFQGLDILKNQTVRGGTVEMLFQNLSLIKKYIDRQKEKCGEERRRTRQFLDYLQEFLGVMSTEWAMEG
[4]
  Mouse on human (active on the cognate human receptor): Yes^40

B2: IL-15: cytokine of murine origin (protein, UniProt P48346 49-162, looked up)
Interleukin-15: NWIDVRYDLEKIESLIQSIHIDTTLYTDSDFHPSCKVTAMNCFLLELQVILHEYSNMTLNETVRNVLYLANSTLSSNKNVAESGCKECEELEEKTFTEFLQSFIRIVQMFINTS
[4]
  Mouse on human (active on the cognate human receptor): Yes^39

B3: IL-6: cytokine of murine origin (protein, UniProt P08505 25-211, looked up)
Interleukin-6: FPTSQVRRGDFTEDTTPNRPVYTTSQVGGLITHVLWEIVEMRKELCNGNSDCMNNDDALAENNLKLPEIQRNDGCYQTGYNQEICLLKISSGLLEYHSYLEYMKNNLKDNKKDKARVLQRDTETLIHIFNQEVKDLHKIVLPTPISNALLTDKLESQKEWLRTKTIQFILKSLEEFLKVTLRSTRQT
[4]
  Mouse on human (active on the cognate human receptor): No^39
